The record followed here is patent US5192756A, “Aminosterol antibiotic” (The Children's Hospital of Pennsylvania, priority 1992, dated 1993).

≈ marks a conversion by molar mass, not a printed value. No end group written: not given here. Bounds are passed on as bounds.

One data set relates to E. coli. As to the kind of experiment: Minimal inhibitory concentration, E. coli. The format is cell-based. The note with it: E. coli ATCC 25922, 1/2×TSB, 37° C., 18 to 24 hours; for MIC: Escherichia coli, ATCC25922. The protocol:
(§1) Squalamine was assayed in vitro against several microbial organisms to evaluate its spectrum of activity.
(§2) Minimal inhibitory concentrations for the bacteria and yeast were determined by incubating 0.9-11×10^5 colony-forming units/ml of log-phase organisms in 1/2×tryptica soy broth (TSB) with increasing concentrations of sample in static 96-2311 microtiter plates (Corning, Inc., Corning, N.Y.) at 37° C. for 18 to 24 hours. The minimal inhibitory concentration is the concentration of sample at which no growth was observed. Control incubation in the absence of […] served to set a baseline value.
(§3) Initial sample concentrations were 2 mg/ml in 250 mM sodium acetate pH 6.6, 11.2 mM HCl, except taurolithocholic acid 3-sulfate which was 2 mg/ml in 50 mM sodium acetate, and squalamine to which HCl was not added because it was acidic following the last step of purification. Spermidine HCl, taurolithocholic acid 3-sulfate, melittin, holothurin and ampicillin were purchased from Sigma (St. Louis, Miss.). CHAPS (3-[(3-cholamidopropyl)dimethylammonio]-1-propane sulfonate dihydrate) was purchased from Aldrich (Milwaukee, Wis.). Conessine was purchased from Aldrich Rare Chemicals Division (Milwaukee, Wis.). Magainin-II amide and CPF-amide were made by Magainin Pharmaceuticals, Inc. (Plymouth Meeting, Penn.). The CPF peptide used in the assay has the sequence […]-NH2. (Richter, K., et al., J. Biol. Chem. 261, 3676-3680 (1986).

The next data set has as its system Staph. aureus. Briefly: Minimal inhibitory concentration, Staph. aureus. The note with it: Staph. aureus ATCC 29213, 1/2×TSB, 37° C., 18 to 24 hours; for MIC: Staphylococcus aureus, ATCC29213. It is filed as cell-based. As for the experimental part: as §1, §2, §3
A further data set deals with Pseudomonas aeruginosa. As to the kind of experiment: Minimal inhibitory concentration, Pseudomonas aeruginosa. Conditions: Pseudomonas aeruginosa ATCC 27853, 1/2×TSB, 37° C., 18 to 24 hours; for MIC: ATCC27853. The format is cell-based. As for the experimental part:
as §1, §2, §3

In a further data set the test system is Strep. faecalis. Briefly: Minimal inhibitory concentration, Strep. faecalis. The format is cell-based. Conditions: Strep. faecalis ATCC 29212, 1/2×TSB, 37° C., 18 to 24 hours; for MIC: Enterococcus faecalis, ATCC29212. As for the experimental part: as §1, §2, §3
Another data set has as its system Candida albicans. As to the kind of experiment: Minimal inhibitory concentration, Candida albicans. The format is cell-based. The note with it: for MIC: ATCC14053; for MIC / Minimal Inhibitory Concentration: Candida albicans ATCC 14053, 1/2×TSB, 37° C., 18 to 24 hours. As for the experimental part: as §1, §2, §3
A further data set has as its system Proteus vulgaris. As to the kind of experiment: Minimal inhibitory concentration, Proteus vulgaris. It is filed as cell-based. The note with it: Proteus vulgaris ATCC 13315, 1/2×TSB, 37° C., 18 to 24 hours; for MIC: ATCC13315. The protocol:
as §1, §2, §3

For another data set, the system named is Serratia marcescens. As to the kind of experiment: Minimal inhibitory concentration, Serratia marcescens. The note with it: Serratia marcescens ATCC 8100, 1/2×TSB, 37° C., 18 to 24 hours; for MIC: ATCC8100. The format is cell-based. As for the experimental part:
as §1, §2, §3

A further data set relates to Paramecium caudatum. As to the kind of experiment: Minimal disruptive concentration, Paramecium caudatum. It is filed as cell-based. The note with it: for MIC / Minimal Inhibitory Concentration (minimal disruptive concentration for the protozoa): 1% trypticase soy broth, light microscopy for ten minutes; for MIC: read-out: Minimal Inhibitory Concentration (minimal disruptive concentration for the protozoa). The protocol:
as §1, §3
(§4) Minimal disruptive concentration (the concentration at which physical disruption of the protozoa occurred) was determined for the protozoa by adding […] of sample (in sodium acetate as above) to […] of 1% trypticase soy broth containing P. caudatum (Nasco, Fort Atkinson, Wiss,). Organisms were observed by light microscopy for ten minutes.

Data set [1] in a line: Hemolytic activity against human erythrocytes. The format is cell-based. The note with it: human; 92 μg/ml; 10% erythrocytes in PBS, 37° C., ten minutes; Triton X-100 = 100%. The protocol:
(§5) Because of its structural resemblance to steroidal detergents, squalamine was assayed for its hemolytic activity against human erythrocytes.
(§6) Each sample was diluted in H2 O and was added to a 10% (vol/vol) suspension of human erythrocytes in phosphate buffered saline (PBS). Erythrocytes were collected with heparin and washed once in 1×PBS before the assay. Samples were incubated at 37° C. for ten minutes, centrifuged at 12,000× g for one minute, and the OD350 of the supernatant was measured. Addition of Triton X-100 (final concentration 0.1%) defined 100% hemolysis.

The test system of data set [2] is several microbial organisms. As to the kind of experiment: In vitro antimicrobial spectrum (bacteria, fungi, protozoa), in words. It is filed as cell-based. The note with it: for antibiotic activity (in words): bacteria, fungi, protozoa, concentration range studied. The protocol:
as §1, §2, §3, §4

A further data set relates to human erythrocytes. As to the kind of experiment: Hemolytic activity against human erythrocytes. It is filed as cell-based. The protocol: as §5, §6
The next data set relates to E. coli D31. As to the kind of experiment: Protease resistance of antimicrobial activity (proteinase K). It is filed as in vitro ADME. The note with it: proteinase K 2 mg/ml, one hour, 37° C.; E. coli D31 lawn. As for the experimental part:
Proteinase K (final concentration 2 mg/ml) was added to 0.2 μg/μl squalamine or 0.8 μg/μl magainin II amide in 1×phosphate-buffered saline. After a one hour incubation at 37° C., 2 μl of each sample was applied to the lawn of E. coli D31.

Turning to `CC1(C)S[C@@H]2[C@H](NC(=O)[C@H](N)c3ccccc3)C(=O)N2[C@H]1C(=O)O` [Ampicillin, ampicillin], the MIC against E. coli is 2 to 4 µg/mL (≈ 5.72 to 11.4 µM); in the data set on Staph. aureus, 1 µg/mL (≈ 2.86 µM); with Pseudomonas aeruginosa, 62 to 125 µg/mL (≈ 177 to 358 µM); in the data set with Strep. faecalis, below 0.25 µg/mL; in the data set on Candida albicans, above 125 µg/mL; with Proteus vulgaris, 8 to 16 µg/mL (≈ 22.9 to 45.8 µM). Also, the MIC in the data set on Serratia marcescens is 4 to 62 µg/mL (≈ 11.4 to 177 µM); with Paramecium caudatum, above 65 µg/mL. In [1], the hemolysis at 10 min is below 0.5%.

For `C[C@H](CCC(=O)NCCC[N+](C)(C)CCCS(=O)(=O)[O-])[C@H]1CC[C@H]2[C@@H]3[C@H](O)C[C@@H]4C[C@H](O)CC[C@]4(C)[C@H]3C[C@H](O)[C@]12C` [CHAPS, 3-[(3-cholamidopropyl)dimethylammonio]-1-propane sulfonate dihydrate], the MIC with E. coli is above 500 µg/mL; with Staph. aureus, above 500 µg/mL; with Pseudomonas aeruginosa, above 500 µg/mL; against Strep. faecalis it was 250 to 500 µg/mL; against Candida albicans it was above 500 µg/mL; against Proteus vulgaris, above 500 µg/mL. Further, the MIC in the data set with Serratia marcescens was above 500 µg/mL; in the data set on Paramecium caudatum it was above 260 µg/mL. Also, in [2], the “antibiotic activity (in words)” value is “inactive as an antibiotic”. Moreover, the hemolysis at 10 min in [1] is below 0.5%.

Take `C[C@H]1[C@H]2CC[C@H]3[C@@H]4CC=C5C[C@@H](N(C)C)CC[C@]5(C)[C@H]4CC[C@]23CN1C` [Conessine]: the MIC with E. coli is above 500 µg/mL; in the data set with Staph. aureus, above 500 µg/mL; with Pseudomonas aeruginosa, above 500 µg/mL; with Strep. faecalis, above 500 µg/mL; against Candida albicans, 31 to 62 µg/mL (≈ 86.9 to 174 µM); in the data set with Proteus vulgaris, above 500 µg/mL. The MIC in the data set with Serratia marcescens was above 500 µg/mL; with Paramecium caudatum, 16 to 33 µg/mL (≈ 44.9 to 92.5 µM). Also, the “antifungal activity (in words)” value in the data set on Candida albicans (Candida) was “exhibits antifungal (Candida) and antiprotozoan (Paramecium caudatum) activity”. Besides, in the data set with Paramecium caudatum, the “antiprotozoan activity (in words)” value is “exhibits antifungal (Candida) and antiprotozoan (Paramecium caudatum) activity”. The “antibacterial activity (in words)” value in [2] (bacteria of Table I) is recorded as “lacks antibacterial activity”. Besides, the hemolysis at 10 min in [1] was below 0.5%.

On to `CC[C@H](C)[C@H](NC(=O)CN)C(=O)NCC(=O)N[C@@H](C)C(=O)N[C@H](C(=O)N[C@@H](CC(C)C)C(=O)N[C@@H](CCCCN)C(=O)N[C@H](C(=O)N[C@@H](CC(C)C)C(=O)N[C@H](C(=O)N[C@H](C(=O)NCC(=O)N[C@@H](CC(C)C)C(=O)N1CCC[C@H]1C(=O)N[C@@H](C)C(=O)N[C@@H](CC(C)C)C(=O)N[C@H](C(=O)N[C@@H](CO)C(=O)N[C@@H](Cc1c[nH]c2ccccc12)C(=O)N[C@H](C(=O)N[C@@H](CCCCN)C(=O)N[C@@H](CCCNC(=N)N)C(=O)N[C@@H](CCCCN)C(=O)N[C@@H](CCCNC(=N)N)C(=O)N[C@@H](CCC(N)=O)C(=O)N[C@@H](CCC(N)=O)C(N)=O)[C@@H](C)CC)[C@@H](C)CC)[C@@H](C)O)[C@@H](C)O)C(C)C)C(C)C` [Melittin], for which the “Minimal Inhibitory Concentration” value lay within 8 to 16 µg/mL with E. coli; 8 to 16 µg/mL with Staph. aureus; 16 to 31 µg/mL in the data set on Pseudomonas aeruginosa; 4 to 16 µg/mL with Strep. faecalis; 16 to 31 µg/mL in the data set with Candida albicans; 16 to 31 µg/mL in the data set with Proteus vulgaris. The “Minimal Inhibitory Concentration” value in the data set on Serratia marcescens is above 250 µg/mL. The “Minimal Inhibitory Concentration (minimal disruptive concentration for the protozoa)” value in the data set with Paramecium caudatum is 2 to 4 µg/mL. In addition, the “antibiotic versus hemolytic concentration / selectivity (in words)” value in the data set with human erythrocytes (antibiotic activity compared with erythrocyte disruption) was “fall within a similar concentration range”.

On to `NCCCCNCCCN` [Spermidine], for which the MIC is above 500 µg/mL against E. coli; above 500 µg/mL in the data set on Staph. aureus; above 500 µg/mL against Pseudomonas aeruginosa; 250 to 500 µg/mL (≈ 1720 to 3440 µM) against Strep. faecalis; above 500 µg/mL in the data set on Candida albicans; above 500 µg/mL in the data set with Proteus vulgaris. The MIC against Serratia marcescens was above 500 µg/mL; with Paramecium caudatum, above 260 µg/mL. For the same compound, the “antibiotic activity (in words)” value in data set [2] is “inactive as an antibiotic”. This compound showed a hemolysis at 10 min in [1] below 0.5%.

On to `C[C@H](CCC(=O)NCCS(=O)(=O)O)[C@H]1CC[C@H]2[C@@H]3CC[C@@H]4C[C@H](OS(=O)(=O)O)CC[C@]4(C)[C@H]3CC[C@]12C` [Taurolithocholic Acid 3-sulfate, taurolithocholic acid 3-sulfate], for which the MIC with E. coli, in the data set with Staph. aureus, against Pseudomonas aeruginosa, against Strep. faecalis, in the data set on Candida albicans and with Proteus vulgaris was above 500 µg/mL each time. The MIC in the data set on Serratia marcescens was above 500 µg/mL; in the data set on Paramecium caudatum, above 260 µg/mL. Besides, in data set [2], the “antibiotic activity (in words)” value was “inactive as an antibiotic”.

As for “GFGSFLGKALKAALKIGANALGGSPQQ-NH2 [CPF, caerulein percursor fragment, Xenopus antimicrobial peptide]”, the “Minimal Inhibitory Concentration” value in the data set on E. coli lay within 8 to 16 µg/mL; in the data set with Staph. aureus it was 8 to 16 µg/mL; in the data set with Pseudomonas aeruginosa, 8 to 31 µg/mL; in the data set on Strep. faecalis it was 31 to 62 µg/mL; with Candida albicans, 62 to 125 µg/mL; with Proteus vulgaris it was 62 to 125 µg/mL. Moreover, the “Minimal Inhibitory Concentration” value in the data set on Serratia marcescens was above 125 µg/mL. Also, the “Minimal Inhibitory Concentration (minimal disruptive concentration for the protozoa)” value in the data set on Paramecium caudatum fell in the range of 4 to 8 µg/mL. This compound had a hemolysis with human erythrocytes (92 μg/ml, 10% erythrocytes in PBS, 37° C., ten minutes, Triton X-100 = 100%, 10 min) of 3%.

For Magainin II, the “Minimal Inhibitory Concentration” value in the data set on E. coli is 31 to 62 µg/mL; in the data set with Staph. aureus it was above 250 µg/mL; in the data set on Pseudomonas aeruginosa, 31 to 62 µg/mL; in the data set on Strep. faecalis, above 250 µg/mL; in the data set with Candida albicans, 125 to 250 µg/mL; with Proteus vulgaris, 125 to 250 µg/mL. The “Minimal Inhibitory Concentration” value in the data set on Serratia marcescens is above 250 µg/mL. For the same compound, the “Minimal Inhibitory Concentration (minimal disruptive concentration for the protozoa)” value in the data set with Paramecium caudatum fell in the range of 33 to 65 µg/mL. Besides, the “antimicrobial activity after proteinase K digestion” value in the data set on E. coli D31 is reported as “lost all activity on proteinase K digestion”.
